ChEMBL document CHEMBL2407070, “Bioactive compounds from the roots of Strophioblachia fimbricalyx” (J Nat Prod, 2013)
pIC50: −log10 of the molar value.

Assays:
KB = assay: Cytotoxicity against human KB cells by SRB assay; assay type: functional, cell-based
Plasmodium falciparum = assay: Antiplasmodial activity against Plasmodium falciparum K1 after 42 hrs by microdilution method; assay type: functional, organism-based; conditions: K1, 42 h
NCI-H187 [1] = assay: Cytotoxicity against human NCI-H187 cells by SRB assay; assay type: functional, cell-based
MCF7 = assay: cells; conditions: Homo sapiens
Description: Cytotoxicity against human MCF7 cells by SRB assay

Vero = assay: Cytotoxicity against african green monkey Vero cells by SRB assay; assay type: functional, cell-based; conditions: Chlorocebus sabaeus
NCI-H187 [2] = assay: Cytotoxicity against human NCI-H187 cells; assay type: functional, cell-based

Row | SMILES | pIC50 (KB) | pIC50 (Plasmodium falciparum) | pIC50 (NCI-H187 [1]) | pIC50 (MCF7) | pIC50 (Vero) | pIC50 (NCI-H187 [2])
1 | COc1cc2c3c(cc(O)c2cc1C)C(C)(C)C(=O)[C@]1(OC)Oc2c(cc4c(cc(OC)c5cc(C)c(OC)cc54)c2C)O[C@H]31 | < 5.00 | < 5.00 | < 5.00 | < 5.00 |  | 
2 | COc1cc2c3c(cc(O)c2cc1C)C(C)(C)C(=O)[C@@]1(OC)Oc2c(cc4c(cc(OC)c5cc(C)c(OC)cc54)c2C)O[C@H]31 | < 5.00 | < 5.00 | < 5.00 | < 5.00 |  | 
3 | COc1cc2c3c(cc(OC)c2cc1C)C(C)(O)OC3=O (stereo not given) | < 5.00 | < 5.00 | < 5.00 | < 5.00 |  | 
4 | COc1cc2c3c(cc(O)c2cc1C)C(C)(C)C(=O)OC3=O | < 5.00 | 5.41 | 5.24 | < 5.00 | < 5.00 | 
5 | COC1=Cc2c(cc(OC3=C4C(=CC(=O)C4(C)C)c4cc(OC)c(C)cc4C3=O)c3cc(C)c(OC)cc23)C(C)(C)C1=O | < 5.00 | 5.54 |  | < 5.00 | < 5.00 | 5.08
6 | COC1=C2C(=CC(=O)C(O)=C2C)c2cc(OC)c(C)cc2C1=O | < 5.00 | 7.71 | < 5.00 | < 5.00 | < 5.00 | 
7 | O[C@@H](c1cc(C(F)(F)F)nc2c(C(F)(F)F)cccc12)[C@H]1CCCCN1 (relative stereo) [(S,R)-MEFLOQUINE] |  | 7.51 |  |  |  | 
8 | C[C@H]1[C@@H](O)O[C@@H]2O[C@@]3(C)CC[C@H]4[C@H](C)CC[C@@H]1[C@@]24OO3 [ARTENIMOL] |  | 8.60 |  |  |  | 
9 | COc1cccc2c1C(=O)c1c(O)c3c(c(O)c1C2=O)C[C@@](O)(C(=O)CO)C[C@@H]3O[C@H]1C[C@H](N)[C@H](O)[C@H](C)O1 [DOXORUBICIN] | 6.25 |  | 6.85 |  |  | 
10 | Cc1c2ccncc2c(C)c2c1[nH]c1ccccc12 [ELLIPTECINE] | 5.92 |  | 5.94 |  | 5.92 | 
11 | CC/C(=C(\c1ccccc1)c1ccc(OCCN(C)C)cc1)c1ccccc1 [TAMOXIFEN] |  |  |  | 5.28 |  | 
